This note sets out measurements from patent publication US4593104A, “2-halo-N-(azole-1-yl-methyl)-substituted acetanilides” (BASF Aktiengesellschaft, priority 1976, dated 1986).

One data set deals with Glyc. max. Briefly: preemergence treatment in the greenhouse, % damage. The data set is classed as in vivo, Glycine max. An excerpt:
(§1) The vessels employed were plastic flowerpots having a volume of 300 cm^3; the substrate was a sandy loam containing about 1.5% humus. The seeds of the test plants (see Table 1) were sown shallow, and separated according to species. In the case of Cyperus esculentus, pregerminated tubers were planted. In the preemergence treatment, the active ingredients were then immediately applied to the surface of the soil. They were suspended or emulsified in water as the vehicle, and sprayed through atomizing nozzles. After the agents had been applied, the vessels were lightly sprinkler-irrigated to set germination and growth going, and to activate the chemical agents. The vessels were then covered with transparent plastic hoods until the plants had taken root. This cover ensured uniform germination of the test plants (to the extent that this was not impaired by the chemicals), and prevented readily volatile substances from evaporating.
(§2) For postemergence treatment, the plants were first grown to a height of from 3 to 10 cm, depending on their habit, before treated. Hoods were not placed on the pots. The experiments were set up in the greenhouse, hotter areas (25° to 40° C.) being preferred for heat-loving species, and 15° to 30° C. for plants from moderate climates. The experiments were carried out for from 4 to 6 weeks. During this period the plants were tended and their reaction to the various treatments was assessed. The following tables contain the substances investigated, the application rates in kg/ha of active ingredient, and the test plant species. Assessments were made on a 0 to 100 scale, 0 denoting no damage or normal emergence, and 100 denoting no emergence or complete destruction of at least the visible plant parts.

The subject of a further data set is Matric. spp. Briefly: preemergence treatment in the greenhouse, % damage. The data set is classed as in vivo.
Source text: as §1, §2

The next data set has as its system Echin. c.g. Briefly: preemergence treatment in the greenhouse, % damage. The data set is classed as in vivo.
Source text: as §1, §2

For another data set, the system named is Cyperus ferax. Briefly: preemergence treatment in the greenhouse, % damage. The data set is classed as in vivo.
Source text: as §1, §2

The test system of data set [1] is Setaria spp. In words: preemergence treatment in the greenhouse, % damage. Type of data set: in vivo.
Source text: as §1, §2

The test system of the next data set is Bromus spp. Briefly: preemergence treatment in the greenhouse, % damage. Type of data set: in vivo.
Source text: as §1, §2

Data set [2] has as its system Alopec. myosur. In words: preemergence treatment in the greenhouse, % damage. The data set is classed as in vivo.
Source text: as §1, §2

A further data set concerns Beta vulg. In words: preemergence treatment in the greenhouse, % damage. The data set is classed as in vivo, Beta vulgaris.
Source text: as §1, §2

The subject of another data set is Brassica napus. In words: preemergence application in the open, % damage. Type of data set: in vivo. To be noted: 2.0 kg/ha. How it is done: (§3) The experiments were carried out on small plots. The soil was a sandy loam having a pH of from 5 to 6 and containing from 1 to 1.5% humus. The treatment was preemergence, the active ingredients being applied immediately or at the latest 3 days after sowing. The crop plants were sown in rows. The weed flora was made up of the most widely varying species and was natural; the weed flora depended on the time of the year and in part on the crop (e.g., spring-germinating, summer-germinating). The substances were emulsified or suspended in water as the vehicle, and applied by means of a motor-driven plot spray mounted on a hitch. When no rain fell, the plots were watered to ensure germination and growth of the crop plants and weeds. All the experiments were run for several weeks. Over this period, assessments were made at certain intervals on the 0 to 100 scale.

In another data set the test system is Anth./Matric. Briefly: preemergence application in the open, % damage. Type of data set: in vivo. To be noted: 2.0 kg/ha. How it is done:
as §3

The test system of a further data set is Lamium spp. In words: preemergence application in the open, % damage. The data set is classed as in vivo. The settings on record: 2.0 kg/ha. How it is done:
as §3

The subject of data set [3] is Alopec. myosur. Briefly: preemergence application in the open, % damage. Type of data set: in vivo. To be noted: 2.0 kg/ha. The method, then:
as §3

The next data set deals with Stellaria media. In words: preemergence application in the open, % damage. Type of data set: in vivo. To be noted: 2.0 kg/ha. How it is done: as §3
The next data set deals with Avena fat. Briefly: postemergence application in the greenhouse, % damage. The data set is classed as in vivo.
Source text: as §1, §2

Data set [4] deals with Setaria spp. The description is as above. Type of data set: in vivo.
Source text: as §1, §2

Another data set concerns Stell. med. The data set is described as above. Type of data set: in vivo.
Source text: as §1, §2

A further data set deals with Cyper. escul. The data set is described as above. Type of data set: in vivo, Cyperus esculentus.
Source text: as §1, §2

For a further data set, the system named is Poa annua. Briefly: preemergence treatment in the greenhouse, % damage. The data set is classed as in vivo.
Source text: as §1, §2

The subject of the next data set is Sorgh. halep. In words: preemergence treatment in the greenhouse, % damage. The data set is classed as in vivo.
Source text: as §1, §2

Another data set has as its system Amar. retro. In words: preemergence treatment in the greenhouse, % damage. The data set is classed as in vivo.
Source text: as §1, §2

A further data set relates to Cyp. diff. In words: preemergence treatment in the greenhouse, % damage. The data set is classed as in vivo.
Source text: as §1, §2

With `COc1cnn(CN(C(=O)CCl)c2c(C)cccc2C)c1`, the “% damage” value in the data set on Glyc. max (0.5 kg/ha) is reported as 0%; in the data set on Glyc. max (1.0 kg/ha) it was 0%; with Matric. spp. (0.5 kg/ha) it was 95%; with Matric. spp. (1.0 kg/ha), 95%; in the data set with Echin. c.g. (0.5 kg/ha), 100%; in the data set with Echin. c.g. (1.0 kg/ha), 100%. Further, the “% damage” value with Cyperus ferax (0.5 kg/ha), in the data set with Cyperus ferax (1.0 kg/ha), in the data set on Setaria spp. [1] (0.5 kg/ha), in the data set on Setaria spp. [1] (1.0 kg/ha), with Bromus spp. (0.5 kg/ha) and with Bromus spp. (1.0 kg/ha) was 100% in each case. Moreover, the “% damage” value in the data set on Alopec. myosur. [2] (0.5 kg/ha) and with Alopec. myosur. [2] (1.0 kg/ha) was 100% in each case.
For `CCc1cccc(C)c1N(Cn1cc(OC)cn1)C(=O)CCl`, the “% damage” value stood at 0% in the data set on Glyc. max (0.5 kg/ha); 0% with Glyc. max (1.0 kg/ha); 5% with Beta vulg. (0.5 kg/ha); 15% in the data set with Beta vulg. (1.0 kg/ha); 98% in the data set on Matric. spp. (0.5 kg/ha); 98% in the data set with Matric. spp. (1.0 kg/ha). For the same compound, the “% damage” value in the data set on Echin. c.g. (0.5 kg/ha), with Echin. c.g. (1.0 kg/ha), in the data set on Cyperus ferax (0.5 kg/ha), with Cyperus ferax (1.0 kg/ha), in the data set with Setaria spp. [1] (0.5 kg/ha) and in the data set with Setaria spp. [1] (1.0 kg/ha) was 100% each time. Besides, the “% damage” value in the data set with Bromus spp. (0.5 kg/ha) is given as 90%; in the data set with Bromus spp. (1.0 kg/ha), 98%; in the data set on Alopec. myosur. [2] (0.5 kg/ha) it was 100%; with Alopec. myosur. [2] (1.0 kg/ha), 100%.
On to `Cc1cc(C)n(CN(C(=O)CCl)c2c(C)cccc2C)n1` [Compound 38], for which the “% damage” value worked out at 0% in the data set on Brassica napus; 100% in the data set with Anth./Matric.; 100% in the data set with Lamium spp.; 80% in the data set on Alopec. myosur. [3]; 88% with Stellaria media; 70% in the data set with Avena fat. (1.0 kg/ha). Further, the “% damage” value in the data set on Avena fat. (2.0 kg/ha) was 90%; in the data set with Setaria spp. [4] (1.0 kg/ha) it was 85%; with Setaria spp. [4] (2.0 kg/ha), 85%; in the data set on Stell. med. (1.0 kg/ha), 100%; in the data set on Stell. med. (2.0 kg/ha) it was 100%; in the data set on Cyper. escul. (1.0 kg/ha) it was 80%. In addition, the “% damage” value turned out to be 80% in the data set with Cyper. escul. (2.0 kg/ha); 100% in the data set with Poa annua (0.125 kg/ha); 100% with Poa annua (0.25 kg/ha); 70% with Sorgh. halep. (0.125 kg/ha); 95% in the data set with Sorgh. halep. (0.25 kg/ha); 95% in the data set with Bromus spp. (0.125 kg/ha). For the same compound, the “% damage” value with Bromus spp. (0.25 kg/ha) stood at 100%; in the data set with Amar. retro. (0.125 kg/ha) it was 75%; in the data set on Amar. retro. (0.25 kg/ha), 100%; with Cyp. diff. (0.125 kg/ha), 100%; in the data set with Cyp. diff. (0.25 kg/ha) it was 100%.
